In brackets after ≈: the same amount, converted by molar mass. Like-named read-outs stand apart in the source and are kept apart here.
Experiments:
P. ae LpxC enzyme = P. ae LpxC enzyme (Pseudomonas aeruginosa, UniProt P47205); experiment: Enzyme inhibition testing (fluorescamine assay); type: biochemical; details: for inhibition at 10 µg/mL: @10 μg/ml; for inhibition at 0.5 µg/mL: @0.5 μg/ml
Description: Compounds were tested based on a published method (Wang W., 2001, Anal Biochem, 290, 338-46) with modifications. Enzyme assays were performed in the assay buffer (50 mM HEPES, pH8, 0.005% Brij, 50 μM ZnSO4, 1 mg/ml BSA) in 96-well V-bottom microtiter plates.
Stock solutions of test compounds and control antibiotics are prepared at 10 mg/ml in DMSO and are diluted in the assay buffer to 6-fold the final testing concentration. 5 μl compound dilution is distributed to the well of the assay plate. EDTA is used as positive control and the final concentration in assay is 12.5 mM.
P. ae LpxC enzyme dilution in the assay buffer is added to the compound in plate and pre-incubated with the compound at room temperature for 10 min. LpxC substrate is added to initiate the enzyme reaction and the final enzyme and substrate concentrations are 1.2 μM and 0.4 mM, respectively. The reaction continues at RT for 4 hrs before diluted with 45 μl of Borate buffer (0.4 M, pH9), followed by addition of 40 μl derivatization reagent (fluorescamine 2 mg/ml DMF). This mixture is incubated at RT for 10 min followed by addition of 150 μl DMF/H2O (1:1). The resulting solution is loaded onto Millipore filter unit (Microcon 10 k MWCO) and spun at 13 k rpm on bench top centrifuge for 15 min. 100 μl of this filtrate is transferred to a low fluorescence clear-bottom 96-well plate (Corning) and the fluorescence is detected at ex360 nm and em465 nm on a Tecan fluorescence plate reader. The percent inhibition is calculated based on EDTA produces 100% inhibition and negative control produces 100% activity.

P. aerug. Hypersuc = experiment: Susceptibility testing (MIC, CLSI microdilution); type: cell-based, Pseudomonas aeruginosa; details: 20 h at 35° C., Δ efflux, hypersusceptible strain, unit assumed
Description: (§1) Compounds were tested following the microdilution method of CLSI (Clinical and Laboratory Standards Institute. Methods for dilution antimicrobial susceptibility tests for bacteria that grow aerobically; Approved standard—sixth edition. CLSI document M7-A5, CLSI, Wayne, Pa. 2003). Assays were performed in sterile plastic 96-well microtiter trays with round bottom wells (Greiner).
(§2) Stock solutions of test compounds and control antibiotics were prepared at 10 mg/ml in DMSO. Serial 2-fold dilutions of each drug were performed in a microtiter plate across each row using DMSO as solvent at 100-fold the desired final concentration. Wells in columns #1-11 contain drug and column #12 was kept as a growth control for the organism with no drug. Each well in the mother plate was diluted with sterile deionized water and DMSO, mixed, and volumes of 10 μl distributed to each well in the resulting assay plates.
(§3) Stock cultures were prepared using the Microbank™ method (Pro-Lab Diagnostics) and stored at −80° C. To propagate each strain, one bead was removed from the frozen vial and aseptically streaked onto Trypticase Soy Agar (Difco) which were incubated at 35° C. Standardized inocula were prepared using the direct colony suspension method according to CLSI guidelines (Clinical and Laboratory Standards Institute. Methods for dilution antimicrobial susceptibility tests for bacteria that grow aerobically; Approved standard—sixth edition. CLSI document M7-A5, CLSI, Wayne, Pa., 2003). Isolated colonies were selected from an 18-24 hr agar plate and resuspended in 0.9% sterile saline to match a 0.5 McFarland turbidity standard using a calorimeter (Vitek) at 80% of transmitance. The suspension was used within 15 minutes of preparation.
(§4) Mueller-Hinton Broth (MHB) (Difco) was prepared at a 1.1× concentration and supplemented with Ca++ and Mg++ as recommended by CLSI. For each organism, the standardized suspension was diluted 1:180 into appropriate growth medium in a sterile reservoir. After mixing, wells in the drug-containing assay plates were inoculated with a volume of 90 μl. Thus, for each minimum inhibitory concentration (MIC) determination, each well contains a final volume of 100 μl with an inoculum size of approximately 5×10^5 colony forming units (cfu)/ml and no more than 1% DMSO.
(§5) The completed microtiter plates were incubated 20 h at 35° C. in ambient air. Optical density of each well was determined at 600 nm using a VersaMax Microplate reader (Molecular Devices, Sunnyvale, Calif.). The MIC was defined as the lowest drug concentration causing complete suppression of visible bacterial growth.

P. aerug. (2) = experiment: Susceptibility testing (MIC, CLSI microdilution); type: cell-based, Pseudomonas aeruginosa; details: 20 h at 35° C., in µg/mL (unit assumed)
Description: as §1, §2, §3, §4, §5

E. coli (2) = experiment: Susceptibility testing (MIC, CLSI microdilution); type: cell-based, Escherichia coli; details: 20 h at 35° C., in µg/mL (unit assumed)
Description: as §1, §2, §3, §4, §5

E. coli tolC = experiment: Susceptibility testing (MIC, CLSI microdilution); type: cell-based, Escherichia coli; details: 20 h at 35° C., unit assumed
Description: as §1, §2, §3, §4, §5

H. influen. = experiment: Susceptibility testing (MIC, CLSI microdilution); type: cell-based, Haemophilus influenzae; details: 20 h at 35° C., unit assumed
Description: as §1, §2, §3, §4, §5

K. pneu. = experiment: Susceptibility testing (MIC, CLSI microdilution); type: cell-based, Klebsiella pneumoniae; details: 20 h at 35° C., unit assumed
Description: as §1, §2, §3, §4, §5

[1] = read-out: ENZYME (percent inhibition)
[2] = @0.1 μg/ml, read-out: ENZYME (percent inhibition)

Chain of P. ae LpxC enzyme (P47205 whole entry): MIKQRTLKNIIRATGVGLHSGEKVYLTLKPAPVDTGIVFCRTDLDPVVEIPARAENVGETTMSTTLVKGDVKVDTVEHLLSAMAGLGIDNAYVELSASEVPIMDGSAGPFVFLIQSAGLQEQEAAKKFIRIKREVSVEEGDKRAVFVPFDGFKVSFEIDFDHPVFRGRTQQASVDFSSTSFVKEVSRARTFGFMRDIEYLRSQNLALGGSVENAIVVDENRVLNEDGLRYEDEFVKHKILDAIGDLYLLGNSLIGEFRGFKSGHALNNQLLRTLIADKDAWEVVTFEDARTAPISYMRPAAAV

| SMILES | inhibition at 10 µg/mL (P. ae LpxC enzyme; [1]) [%] | MIC P. aerug. Hypersuc (P. aerug. Hypersuc) [µg/mL] | MIC P. aerug. (2) (P. aerug. (2)) | MIC E. coli (2) (E. coli (2)) | MIC E. coli tolC (E. coli tolC) [µg/mL] | MIC H. influen. (H. influen.) [µg/mL] | MIC K. pneu. (K. pneu.) [µg/mL] | inhibition at 0.5 µg/mL (P. ae LpxC enzyme; [1]) [%] | inhibition at 0.1 µg/mL (P. ae LpxC enzyme; [2]) [%] | ENZYME (percent inhibition) (P. ae LpxC enzyme; @0.1 μg/ml) [%] | inhibition at 0.1 µg/mL (P. ae LpxC enzyme; read-out: ENZYME (percent inhibition), @0.1 μg/ml) [%] | inhibition at 1 µg/mL (P. ae LpxC enzyme; @1 μg/ml, read-out: ENZYME (percent inhibition)) [%] |
| --- | --- | --- | --- | --- | --- | --- | --- | --- | --- | --- | --- | --- |
| COc1ccc(C(=O)N2CC[C@@H](O)[C@H]2C(=O)NO)cc1SC(F)(F)F [Compound 40, (2S,3R)-3-Hydroxy-N-hydroxy-1-(4-methoxy-3-trifluoromethylsulfanyl-benzoyl)-pyrrolidine-2-carboxamide] | 52 | > 64 | >64 | >64 | 32 (≈ 84.1 µM) | > 64 | 64 (≈ 168 µM) |  |  |  |  |  |
| CCCc1ccc(-c2ccc(C(=O)N[C@@H](CCSC)C(=O)NO)cc2)cc1 [Compound 26, (S)-N-(1-(Hydroxyamino)-4-(methylthio)-1-oxobutan-2-yl)-4′-propylbiphenyl-4-carboxamide] |  | > 64 | >64 | >64 | > 64 | > 64 | > 64 | 72 |  |  |  |  |
| CCCc1ccc(-c2ccc(C(=O)N3C[C@@H](N)[C@H](O)[C@H]3C(=O)NO)cc2)cc1 [Compound 11, (2S,3S,4R)-4-Amino-N,3-dihydroxy-1-(4′-propylbiphenylcarbonyl)pyrrolidine-2-carboxamide] |  | 16 (≈ 41.7 µM) | 64 | >64 | 32 (≈ 83.5 µM) | 32 (≈ 83.5 µM) | > 64 | 84 |  |  |  |  |
| CCCc1ccc(-c2ccc(C(=O)N3CCS(=O)(=O)[C@@H]3C(=O)NO)cc2)cc1 [Compound 19, (R)-N-Hydroxy-3-(4′-propylbiphenylcarbonyl)thiazolidine-sulfone-2-carboxamide] |  | 2 (≈ 4.97 µM) | 8 | 8-16 | 2 (≈ 4.97 µM) | 32 (≈ 79.5 µM) | 4 (≈ 9.94 µM) |  | 10 |  |  |  |
| CCCc1ccc(-c2ccc(C(=O)NC(CS(C)(=O)=O)C(=O)NO)cc2)cc1 (stereo in doubt) [Compound 29, (S)-N-(1-(Hydroxyamino)-3-(methylsulfone)-1-oxopropan-2-yl)-4′-propylbiphenyl-4-carboxamide] |  | 32 (≈ 79.1 µM) | >64 | >64 | ≤ 0.06 | > 64 | 4 (≈ 9.89 µM) |  | 59 |  |  |  |
| O=C(NC(C(=O)NO)C(F)(F)F)c1ccc(-c2ccsc2)cc1 (racemic) [Compound 24, DL-4-Thiophen-3-yl-N-(2,2,2-trifluoro-1-hydroxycarbamoyl-ethyl)-benzamide] |  | 2 (≈ 5.81 µM) | 32 | >64 | 16 (≈ 46.5 µM) | 8 (≈ 23.2 µM) | > 64 |  | 13 |  |  |  |
| O=C(NO)[C@H]1N(C(=O)c2ccc(-c3ccc(F)cc3)cc2)CCS1(=O)=O [Compound 37, (S)-3-(4′-Fluorobiphenylcarbonyl)-N-hydroxythiazolidinesulfone-2-carboxamide] |  | 2 (≈ 5.29 µM) | 4-32 | >64 | ≤ 0.06 | > 64 | > 64 |  | 32 | 42 |  |  |
| O=C(NC(C(=O)NO)C(F)(F)F)c1ccc(-c2cc(F)cc(F)c2)cc1 (racemic) [Compound 23, DL-3′,5′-Difluoro-biphenyl-4-carboxylic acid (2,2,2-trifluoro-1-hydroxycarbamoyl-ethyl)-amide] |  | 2 (≈ 5.34 µM) | 8 | 16 | 8 (≈ 21.4 µM) | 16 (≈ 42.8 µM) | 16 (≈ 42.8 µM) |  | 24 |  |  |  |
| CCCc1ccc(-c2ccc(C(=O)NC(C(=O)NO)c3cccs3)cc2)cc1 (centres unmarked) [Compound 30, N-(2-(Hydroxyamino)-2-oxo-1-(thiophen-2-yl)ethyl)-4′-propylbiphenyl-4-carboxamide] |  | 32 (≈ 81.1 µM) | >64 | 64 | 2 (≈ 5.07 µM) | 16 (≈ 40.6 µM) | 8 (≈ 20.3 µM) | 87 |  |  |  |  |
| CCc1ccc(-c2ccc(C(=O)N3CC[C@@H](N)[C@H]3C(=O)NO)cc2)cc1 [Compound 34, (2S,3R)-3-Amino-N-hydroxy-1-(4′-ethylbiphenylcarbonyl)pyrrolidine-2-carboxamide] |  | 64 (≈ 181 µM) | 16-32 | >64 | > 64 | > 64 | > 64 | 93 |  |  |  |  |
| CCCc1ccc(-c2ccc(C(=O)N3C[C@H](N)[C@@H](O)[C@H]3C(=O)NO)cc2)cc1 [Compound 12] |  | 8 (≈ 20.9 µM) |  | >64 | > 64 | 32 (≈ 83.5 µM) | > 64 | 95 |  |  |  |  |
| CCCc1ccc(-c2ccc(C(=O)N3CC[C@H](OC)[C@H]3C(=O)NO)cc2)cc1 [Compound 7] | 84 | 64 (≈ 167 µM) | >64 |  | 64 (≈ 167 µM) | > 64 | 64 (≈ 167 µM) |  |  |  |  |  |
| CCCc1ccc(-c2ccc(C(=O)N3CS(=O)(=O)CC3C(=O)NO)cc2)cc1 (stereo in doubt) [Compound 17, (S)-N-Hydroxy-3-(4′-propylbiphenylcarbonyl)thiazolidine-sulfone-4-carboxamide] |  | 2 (≈ 4.97 µM) | 16 |  | 8 (≈ 19.9 µM) | > 64 | 16 (≈ 39.8 µM) | 98 |  |  |  |  |
| O=C(NO)[C@H]1N(C(=O)c2ccc(-c3cc(F)cc(F)c3)cc2)CCS1(=O)=O [Compound 36, (S)-3-(3′,5′-Difluorobiphenylcarbonyl)-N-hydroxythiazolidinesulfone-2-carboxamide] |  | 8 (≈ 20.2 µM) |  | >64 | 0.125 (≈ 0.315 µM) | > 64 | > 64 |  |  |  | 8 |  |
| CCCc1ccc(-c2ccc(C(=O)N3CC[C@@H](O)[C@H]3C(=O)NO)cc2)cc1 [Compound 39] |  | 4 (≈ 10.9 µM) |  | >64 | 64 (≈ 174 µM) | > 64 | > 64 |  |  |  |  | 95.2 |
| O=C(NO)c1cocc1C(=O)Nc1cccc(SC(F)(F)F)c1 [Compound 32] | < 10 | > 64 | >64 |  | 64 (≈ 185 µM) | > 64 | > 64 |  |  |  |  |  |
| CCCc1ccc(-c2ccc(C(=O)N3CC[C@H](N)[C@H]3C(=O)NO)cc2)cc1 [Compound 2] |  | 64 (≈ 174 µM) |  | 64 | 32 (≈ 87.1 µM) | 16 (≈ 43.5 µM) | 64 (≈ 174 µM) | 65 |  |  |  |  |
